{
  "source": "ChEMBL document CHEMBL1201862",
  "about": "“PubChem BioAssay data set” (2004)",
  "assay_in_all_cases": "NCI-60 cell line screen, 48 h",
  "key": {"SK-OV-3": {"test_system": "SK-OV-3"}, "SNB-19": {"test_system": "SNB-19"}, "PC-3": {"test_system": "PC-3"}, "NCI-H23": {"test_system": "NCI-H23"}, "HT-29": {"test_system": "HT-29"}, "OVCAR-8": {"test_system": "OVCAR-8"}, "Malme-3M": {"test_system": "Malme-3M"}, "NCI-H522": {"test_system": "NCI-H522"}, "HOP-62": {"test_system": "HOP-62"}, "SW-620": {"test_system": "SW-620"}, "OVCAR-5": {"test_system": "OVCAR-5"}, "K562": {"test_system": "K562"}, "U-251": {"test_system": "U-251"}, "SK-MEL-28": {"test_system": "SK-MEL-28"}, "SNB-75": {"test_system": "SNB-75"}, "HL-60": {"test_system": "HL-60"}, "RPMI-8226": {"test_system": "RPMI-8226"}, "IGROV-1": {"test_system": "IGROV-1"}, "NCI-H226": {"test_system": "NCI-H226"}, "MDA-MB-435": {"test_system": "MDA-MB-435"}, "786-0": {"test_system": "786-0"}, "A549": {"test_system": "A549"}, "MDA-MB-231": {"test_system": "MDA-MB-231"}, "OVCAR-3": {"test_system": "OVCAR-3"}, "HCC 2998": {"test_system": "HCC 2998"}, "UACC-62": {"test_system": "UACC-62"}, "HOP-92": {"test_system": "HOP-92"}, "Hs-578T": {"test_system": "Hs-578T"}, "A498": {"test_system": "A498"}, "SF-295": {"test_system": "SF-295"}, "EKVX": {"test_system": "EKVX"}, "RXF 393": {"test_system": "RXF 393"}, "CAKI-1": {"test_system": "CAKI-1"}, "MOLT-4": {"test_system": "MOLT-4"}, "NCI-H460": {"test_system": "NCI-H460"}, "HCT-116": {"test_system": "HCT-116"}, "NCI/ADR-RES": {"test_system": "NCI/ADR-RES"}, "BT-549": {"test_system": "BT-549"}, "UACC-257": {"test_system": "UACC-257"}, "M14": {"test_system": "M14"}, "ACHN": {"test_system": "ACHN"}, "LOX IMVI": {"test_system": "LOX IMVI"}, "SR": {"test_system": "SR"}, "KM12": {"test_system": "KM12"}, "DU-145": {"test_system": "DU-145"}, "TK-10": {"test_system": "TK-10"}, "OVCAR-4": {"test_system": "OVCAR-4"}, "UO-31": {"test_system": "UO-31"}, "SK-MEL-5": {"test_system": "SK-MEL-5"}, "SF-268": {"test_system": "SF-268"}, "COLO 205": {"test_system": "COLO 205"}, "HCT-15": {"test_system": "HCT-15"}, "T47D": {"test_system": "T47D"}, "SK-MEL-2": {"test_system": "SK-MEL-2"}, "CCRF-CEM": {"test_system": "CCRF-CEM"}},
  "note": "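Step 1: Grow cells in 96-well plates. Step 2: Expose to compound for 48 hours at 5 concentrations. Step 3: Interpolate endpoints linearly; if unreached, use highest concentration. GI50: concentration for 50% inhibition of growth.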 Calls of active or inactive are those of the source. Cut-off read from the data, not from the text of the source: active = GI50 up to about 1.1 µM and inactive = higher.",
  "data": [
    {"smiles": "OC1CN2CCS[C@H]2C(O)C1O", "note": "(stereo not given in full)", "values": [
      {"measurement": "GI50", "setting": "SK-OV-3", "result": "> 100 µM (inactive)"},
      {"measurement": "GI50", "setting": "SNB-19", "result": "> 100 µM (inactive)"},
      {"measurement": "GI50", "setting": "PC-3", "result": "> 100 µM (inactive)"},
      {"measurement": "GI50", "setting": "NCI-H23", "result": "> 100 µM (inactive)"},
      {"measurement": "GI50", "setting": "HT-29", "result": "> 100 µM (inactive)"},
      {"measurement": "GI50", "setting": "OVCAR-8", "result": "> 100 µM (inactive)"},
      {"measurement": "GI50", "setting": "Malme-3M", "result": "> 100 µM (inactive)"},
      {"measurement": "GI50", "setting": "NCI-H522", "result": "> 100 µM (inactive)"},
      {"measurement": "GI50", "setting": "HOP-62", "result": "> 100 µM (inactive)"},
      {"measurement": "GI50", "setting": "SW-620", "result": "> 100 µM (inactive)"},
      {"measurement": "GI50", "setting": "OVCAR-5", "result": "> 100 µM (inactive)"},
      {"measurement": "GI50", "setting": "K562", "result": "> 100 µM (inactive)"},
      {"measurement": "GI50", "setting": "U-251", "result": "> 100 µM (inactive)"},
      {"measurement": "GI50", "setting": "SK-MEL-28", "result": "> 100 µM (inactive)"},
      {"measurement": "GI50", "setting": "SNB-75", "result": "> 100 µM (inactive)"},
      {"measurement": "GI50", "setting": "HL-60", "result": "> 100 µM (inactive)"},
      {"measurement": "GI50", "setting": "RPMI-8226", "result": "> 100 µM (inactive)"},
      {"measurement": "GI50", "setting": "IGROV-1", "result": "> 100 µM (inactive)"},
      {"measurement": "GI50", "setting": "NCI-H226", "result": "> 100 µM (inactive)"},
      {"measurement": "GI50", "setting": "MDA-MB-435", "result": "> 100 µM (inactive)"},
      {"measurement": "GI50", "setting": "786-0", "result": "> 100 µM (inactive)"},
      {"measurement": "GI50", "setting": "A549", "result": "> 100 µM (inactive)"},
      {"measurement": "GI50", "setting": "MDA-MB-231", "result": "> 100 µM (inactive)"},
      {"measurement": "GI50", "setting": "OVCAR-3", "result": "> 100 µM (inactive)"},
      {"measurement": "GI50", "setting": "HCC 2998", "result": "> 100 µM (inactive)"},
      {"measurement": "GI50", "setting": "UACC-62", "result": "> 100 µM (inactive)"},
      {"measurement": "GI50", "setting": "HOP-92", "result": "> 100 µM (inactive)"},
      {"measurement": "GI50", "setting": "Hs-578T", "result": "> 100 µM (inactive)"},
      {"measurement": "GI50", "setting": "A498", "result": "> 100 µM (inactive)"},
      {"measurement": "GI50", "setting": "SF-295", "result": "> 100 µM (inactive)"},
      {"measurement": "GI50", "setting": "EKVX", "result": "> 100 µM (inactive)"},
      {"measurement": "GI50", "setting": "RXF 393", "result": "> 100 µM (inactive)"},
      {"measurement": "GI50", "setting": "CAKI-1", "result": "> 100 µM (inactive)"},
      {"measurement": "GI50", "setting": "MOLT-4", "result": "> 100 µM (inactive)"},
      {"measurement": "GI50", "setting": "NCI-H460", "result": "> 100 µM (inactive)"},
      {"measurement": "GI50", "setting": "HCT-116", "result": "> 100 µM (inactive)"},
      {"measurement": "GI50", "setting": "NCI/ADR-RES", "result": "> 100 µM (inactive)"},
      {"measurement": "GI50", "setting": "BT-549", "result": "> 100 µM (inactive)"},
      {"measurement": "GI50", "setting": "UACC-257", "result": "> 100 µM (inactive)"},
      {"measurement": "GI50", "setting": "M14", "result": "> 100 µM (inactive)"},
      {"measurement": "GI50", "setting": "ACHN", "result": "> 100 µM (inactive)"},
      {"measurement": "GI50", "setting": "LOX IMVI", "result": "> 100 µM (inactive)"},
      {"measurement": "GI50", "setting": "SR", "result": "> 100 µM (inactive)"},
      {"measurement": "GI50", "setting": "KM12", "result": "> 100 µM (inactive)"},
      {"measurement": "GI50", "setting": "DU-145", "result": "> 100 µM (inactive)"},
      {"measurement": "GI50", "setting": "TK-10", "result": "> 100 µM (inactive)"},
      {"measurement": "GI50", "setting": "OVCAR-4", "result": "> 100 µM (inactive)"},
      {"measurement": "GI50", "setting": "UO-31", "result": "> 100 µM (inactive)"},
      {"measurement": "GI50", "setting": "SK-MEL-5", "result": "> 100 µM (inactive)"},
      {"measurement": "GI50", "setting": "SF-268", "result": "> 100 µM (inactive)"},
      {"measurement": "GI50", "setting": "COLO 205", "result": "> 100 µM (inactive)"},
      {"measurement": "GI50", "setting": "HCT-15", "result": "> 100", "unit": "µM"},
      {"measurement": "GI50", "setting": "T47D", "result": "> 100 µM (inactive)"},
      {"measurement": "GI50", "setting": "SK-MEL-2", "result": "> 100 µM (inactive)"},
      {"measurement": "GI50", "setting": "CCRF-CEM", "result": "> 100 µM (inactive)"}
    ]}
  ]
}
